Values quoted from earlier work in patent US11260097B2, “Immunomodulatory composition to treat and/or prevent COVID-19 illness” (priority 2020, dated 2022).

Legend:
[1] = high doses
[2] = in vivo

**Q.** Which results are given for `CC1=CC(=O)C(C(C)C)=CC1=O` [thymoquinone, 2-isopropyl-5-methyl-1,4benzoquinone]?
**A.** water solubility: poor water solubility; toxicity [1]: toxicity at high doses

**Q.** For Nigellidine, which “solubility in acid media” value is on record?
**A.** soluble in acid media

**Q.** With `C[C@@H]1O[C@@H](O[C@H]2[C@H](O[C@H]3CC[C@@]4(C)[C@@H](CC[C@]5(C)[C@@H]4CC=C4[C@@H]6CC(C)(C)CC[C@]6(C(=O)O)CC[C@]45C)[C@]3(C)CO)OC[C@H](O)[C@@H]2O)[C@H](O)[C@H](O)[C@H]1O` [alpha-heridin, alpha-hederin] as the molecule, how does the water solubility read?
**A.** water soluble

**Q.** With glycophosphopeptical [AM3] as the molecule, how does the “onset of clinical improvement in cough, sputum and shortness of breath” value [2] read?
**A.** 3 days
